# Patent US8759318B2, “Phosphoramidate derivatives of guanosine nucleoside compounds for treatment of viral infections” (Inhibitex, Inc., priority 2009, dated 2014)
# Legend:
# [1] = tested on: Dengue Virus Type 2 strain New Guinea; experiment: Cytoprotection assay, Dengue virus; type: cell-based; conditions: Vero C1008
# [2] = tested on: Coxsackie virus strain B4; experiment: Cytoprotection assay, Coxsackie virus; type: cell-based; conditions: Enterovirus B, B4, Vero
# Rhinovirus strain 1B = experiment: Cytoprotection assay, Rhinovirus; type: cell-based; conditions: Enterovirus, MRC5
# [3] = Cytotoxicity evaluation of the HCMV plaque reduction assay; type: cell-based; conditions: human, MRC-5 cells; MRC-5, HCMV AD169 assay
# Protocol: MRC-5 cells ((ATCC CCL-171) embryonal lung fibroblast, diploid, human) were used in plaque reduction assays with HCMV Strain AD169 (ATCC VR-538) and in cytoprotection assays with Rhinovirus strain 1B. They were grown in EMEM supplemented with 10% FBS, 0.1 mM non-essential amino acids, 1.0 mM sodium pyruvate, 2.0 mM L-Glutamine, 100 units/ml Penicillin and 100 μg/ml Streptomycin.
# HCMV Plaque Reduction Assay: MRC-5 cells were seeded at 75,000 cells/well in 24 well plates. The plates were incubated overnight at 37° C. and 5% CO2. The following day, media was aspirated and approximately 100 plaque forming units (pfu) of HCMV AD169 was added to 21 wells of each plate in a volume of 200 μL of assay medium (MRC-5 growth medium containing 2% FBS rather than 10% FBS). The remaining three wells of each plate served as cellular control wells and received 200 μL of assay medium without virus. […] After a six day incubation period, cell viability was determined using CellTiter 96 Aqueous One Solution (Promega Corporation). […] Adhesive plate sealers were used in place of the lids, the sealed plates were inverted several times to mix the soluble formazan product and the plate was read spectrophotometrically at 490 and 650 nm with a Molecular Devices Vmax plate reader. […] A therapeutic (selectivity) index (TI) for each active compound was determined by dividing the TC50 by the IC50.
# [4] = Protide stability in normal plasma, cynomolgous monkey; type: in vitro ADME; conditions: 37° C.
# Protocol: Selected nucleoside 5′-phosphoramidates were examined for stability in human, cynomolgous monkey, rat and mouse plasma at 37° C. at both 30 min and 90 min time points.
# Protide Stability in Normal Plasma: Plasma samples were prepared for analysis as follows. 50 μl of each test sample were distributed a 96-well V-bottom plate. 200 μl of acetonitrile containing 10 ng/ml of an internal standard was added to each plasma sample. The precipitated samples were centrifuged at 2500 rpm, 4° C. for 20 minutes in a Sorvall RT6000S centrifuge (Thermo Scientific, Waltham Mass.) and 100 μl of supernatant from each sample was transferred into a 96 deep well plate followed by the addition of 100 μl H2O to each sample. Samples were covered, mixed well by vortexing and maintained at 2-8° C. before and during analysis. 15 μl of each test sample was analyzed for protide concentrations by liquid chromatography coupled to tandem mass spectrometry (LC-MS/MS). Liquid chromatography was performed with an Agilent 1100 Series HPLC system equipped with a Synergi 4 μm Polar-RP, 30×2.0 mm column (Phenomenex, Torrance, Calif.). The HPLC system was coupled to an API 4000 triple quadrupole mass spectrometer (Applied Biosystems, Framingham, Mass.). Mass spectrometry was performed in positive ion mode and data was analyzed using Analyst® v1.4.2 software (Applied Biosystems, Framingham, Mass.). Data was presented as the percentage of compound recovered as compared to the 0 time point control.
# MDCK cells = conditions: Influenza B assay
# in vitro [5] = conditions: African green monkey
# in vitro [6] = conditions: dog
# [7] = Compound cytotoxicity in cytoprotection assay (MTS), MRC-5; conditions: human, MRC-5 cells
smiles,measurement,setting,value
COc1nc(N)nc2c1ncn2C1O[C@H](COP(=O)(N[C@@H](C)C(=O)OCC(C)(C)C)Oc2cccc3ccccc23)[C@@H](O)[C@@]1(C)O (stereo partly shown) [Example 20],EC50,[1],1.81 µM
same,EC50,[2],> 10 µM
same,EC50,Rhinovirus strain 1B,> 10 µM
same,CC50 at 6 days,[3],1.57 µM
same,% Compound Remaining Compared to %100 Acetonitrile Control,[4]; 30 min,97.0%
same,% Compound Remaining Compared to %100 Acetonitrile Control,[4]; 1.5 h,94.0%
same,CC50,MDCK cells,> 10 µM
same,CC50,in vitro [5],> 10 µM
same,CC50,in vitro [6],> 10 µM
same,CC50 at 7 days,[7],3.08 µM
